Assay results: patent publication US8709804B2, “Method for drug screening and characterization by calcium flux” (Cedars-Sinai Medical Center, priority 2004, dated 2014)

Experiments:
AtT-20 cells [1] = assay: Cell viability control after 45 minutes of imaging and nimodipine: calcium response to high K+ depolarization; type: cell-based, mouse; settings: 45 minutes of imaging and nimodipine treatment up to maximum dose, FIG. 4B
Description: Cells were stained with Calcium Green, imaged and exposed to increasing drug doses for 45 minutes. […] First, untreated AtT-20 cells were imaged over a forty-five (45) minute time span with continuous recording at 3 fps. The amplitude of calcium oscillations was measured and plotted over time. […] The averaged oscillation amplitudes of an untreated cell sample over a fifty (50) minute interval for all cells is shown in FIG. 3B. […] As such, experiments were not recorded longer than 45 minutes.

AtT-20 cells [2] = assay: Dose response of spontaneous calcium oscillations by confocal Calcium Green imaging of single cells; type: cell-based, mouse
Description: Sigmoidal dose response curves were fit to each individual cell and the average response over the total population was calculated.
The treated cell samples were imaged using asymmetric imaging methods and a temporal resolution of 3 fps for up to 45 minutes total recording time. In particular, illumination (excitation) was diffraction limited while the detection (emission) was almost wide-field by opening the confocal detection pinhole but leaving the excitation pinhole closed. This allowed for increased detection efficiency, while still suppressing background fluorescence. […]
The Attofluor cell culture chamber was placed inside a PenCon temperature controlled incubator at 37° C. mounted on a DMIRB/E inverted microscope (obtained from Leica Microsystems; Wetzlar, Germany). […] The digital temperature readout of the incubator was checked with a calibrated mercury thermometer to confirm the values within 0.2° C. […]

## COCCOC(=O)C1=C(C)NC(C)=C(C(=O)OC(C)C)C1c1cccc([N+](=O)[O-])c1 (stereo not drawn) [nimodipine, 1,4-Dihydro-2,6-dimethyl-4-(3-nitrophenyl)-3,5-pyridinedicarboxylic acid 2-methyloxyethyl 1-methylethyl ester]
AtT-20 cells [1]
  Toxicity of prolonged exposure to cells: non-toxic
AtT-20 cells [2]; Mus musculus, AtT20, 5 min, average over all individual cells, FIG. 5B, 5 minute interval per dose, read-out: IC50 of the averaged dose response of calcium oscillation amplitude
  IC50: 23 nM
AtT-20 cells [2]; representative cell, FIG. 4C, concentration increased in 10-fold increments
  Concentration giving complete inhibition of baseline spontaneous calcium oscillations (BSCOs): 100 nM
